Reference: patent US10085937B2, “Nasal drug products and methods of their use” (Adapt Pharma Limited, priority 2014, dated 2018)
Read-outs that look alike come from different tables or passages of the source.

Experiments:
[1] = for Cmax/D: GLSM, dose adjustment to 0.4 mg; for λz / Frel: mean
[2] = Safety of intranasal naloxone: nasal irritation, vital signs, ECG, clinical laboratory (Study 1); assay type: in vivo, human
Method: These vital signs and temperature were also measured at screening, clinic intake, one day after each dosing session and at follow-up. […] AEs were recorded from the start of study-drug administration until clinic discharge. […] Clinical laboratory measurements were done prior to the first drug administration and on the day of clinic release.
Statistical Analysis of Adverse Events: AEs were coded using the Medical Dictionary for Regulatory Activities (MedDRA), version 19. Preferred terms and are grouped by system, organ, class (SOC) designation. AEs are presented as a listing including the start date, stop date, severity, relationship, outcome, and duration.

[3] = Safety of intranasal naloxone: adverse events, nasal irritation, vital signs, ECG (Study 2)
mouse = conditions: intravenous; cited from earlier work
newborn rats = conditions: acute subcutaneous; cited from earlier work
rat = conditions: intravenous; cited from earlier work
clinical = conditions: human, plasma; for AUC(0-t): AUC0-t; for AUC(0-t) / AUC(0-inf) / Cmax: geometric mean (CV %); for AUC(0-inf): AUC0-∞; for Tmax: Table 13
[4] = for Lambda z: harmonic mean; for Tmax: median; for λz: geometric mean (CV %)
[5] = im, 0.4 mg, One Injection 0.4 mg IM
[6] = other: intranasal (IN), 2 mg, One Spray 2% (w/v) IN
[7] = other: intranasal (IN), 4 mg, One Spray 4% (w/v) IN
[8] = other: intranasal, 2 mg, One Spray 2% (w/v) IN
[9] = other: intranasal, 4 mg, One Spray 4% (w/v) IN
[10] = other: intranasal, 4 mg, Two Sprays 2% (w/v) IN
[11] = other: intranasal, 8 mg, Two Sprays 4% (w/v) IN

C=CCN1CC[C@]23c4c5ccc(O)c4O[C@H]2C(=O)CC[C@@]3(O)[C@H]1C5 [naloxone, 17-allyl-4,5α-epoxy-3,14-dihydroxymorphinan-6-one]
Cmax/D ([1]; 0.4 mg IM): 0.755 ng/mL | λz ([1]; 0.4 mg IM): 0.593 h⁻¹ | Frel ([1]; 2 mg IN vs IM): 0.571 | Cmax/D ([1]; 2 mg IN): 0.510 ng/mL | λz ([1]; 2 mg IN): 0.588 h⁻¹ | Frel ([1]; 4 mg IN vs IM): 0.475 | Cmax/D ([1]; 4 mg IN): 0.466 ng/mL | λz ([1]; 4 mg IN): 8.0 h⁻¹ | pharyngeal pain ([2]; 2 mg IN dose): One subject experienced mild transient (over 3 min) pharyngeal pain | nasal irritation (erythema, edema, erosion) in the nasal cavity ([2]; IN 2 and 4 mg to both nostrils): No erythema, edema, erosion, or other sign was observed | QTcF prolongation ([2]; Study 1): no evidence of QTcF prolongation | vital signs, ECG, and clinical laboratory parameters ([2]; after naloxone administration, Study 1): did not reveal any clinically noteworthy changes | adverse events: Dizziness ([3]; 0.4 mg Intramuscular Dose): 1 | adverse events: Headache ([3]; 0.4 mg Intramuscular Dose): 1 | adverse events: Nausea ([3]; 0.4 mg Intramuscular Dose): 1 | Events related to nasal irritation: Edema ([3]; 2 mg (2% w/v, one spray)): 2 | Events related to nasal irritation: Erythema ([3]; 2 mg (2% w/v, one spray)): 4 | Events related to nasal irritation: Other ([3]; 2 mg (2% w/v, one spray)): 1 | Events related to nasal irritation: Total ([3]; 2 mg (2% w/v, one spray)): 7 | adverse events: Nasal Pain ([3]; 2 mg (2% w/v, one spray)): 1 | Events related to nasal irritation: Edema ([3]; 4 mg (2% w/v, two sprays)): 0 | Events related to nasal irritation: Erythema ([3]; 4 mg (2% w/v, two sprays)): 1 | Events related to nasal irritation: Other ([3]; 4 mg (2% w/v, two sprays)): 0 | Events related to nasal irritation: Total ([3]; 4 mg (2% w/v, two sprays)): 1 | Events related to nasal irritation: Edema ([3]; 4 mg (4% w/v, one spray)): 2 | Events related to nasal irritation: Erythema ([3]; 4 mg (4% w/v, one spray)): 1 | Events related to nasal irritation: Other ([3]; 4 mg (4% w/v, one spray)): 0 | Events related to nasal irritation: Total ([3]; 4 mg (4% w/v, one spray)): 3 | Events related to nasal irritation: Edema ([3]; 8 mg (4% w/v, two sprays)): 1 | Events related to nasal irritation: Erythema ([3]; 8 mg (4% w/v, two sprays)): 0 | Events related to nasal irritation: Other ([3]; 8 mg (4% w/v, two sprays)): 0 | Events related to nasal irritation: Total ([3]; 8 mg (4% w/v, two sprays)): 1 | adverse events: Headache ([3]; 8 mg (4% w/v, two sprays)): 1 | relation of nasal irritation to dose ([3]; IN 2 to 8 mg): did not appear to be positively related to the dose | QTcF prolongation ([3]; Study 2): no evidence of QTcF prolongation | vital signs, ECG, and clinical laboratory parameters ([3]; after naloxone administration, Study 2): did not reveal any clinically noteworthy changes | LD50 (mouse): 150 ± 5 mg/kg | LD50 (95% CL) (newborn rats): 260 (228-296) mg/kg | LD50 (rat): 109 ± 4 mg/kg | AUC(0-t) (clinical; [5]): 1.72 ng·h/mL | AUC(0-inf) (clinical; [5]): 1.76 ng·h/mL | Cmax (clinical; [5]): 0.877 ng/mL | Tmax (clinical; [5]): 22.8 min | AUC(0-t) (clinical; [6]): 4.51 ng·h/mL | AUC(0-inf) (clinical; [6]): 4.56 ng·h/mL | AUC(0-t) (clinical; [7]): 7.87 ng·h/mL | AUC(0-inf) (clinical; [7]): 7.95 ng·h/mL | AUC(0-inf) (clinical; other: intranasal (IN), 8 mg, Two Sprays 4% (w/v) IN): 15.5 ng·h/mL | Cmax (clinical; [8]): 2.92 ng/mL | Tmax (clinical; [8]): 19.8 min | Cmax (clinical; [9]): 4.83 ng/mL | Cmax (clinical; [10]): 6.2 ng/mL | Tmax (clinical; [9]): 30 min | Tmax (clinical; [10]): 19.8 min | Cmax (clinical; [11]): 9.7 ng/mL | Tmax (clinical; [11]): 19.8 min | Lambda z ([4]; 0.4 mg IM, Female): 0.6140 h⁻¹ | Lambda z ([4]; 0.4 mg IM, Male): 0.5152 h⁻¹ | Tmax ([4]; 0.4 mg IM, Male): 30 min | Lambda z ([4]; 0.4 mg IM): 0.5534 h⁻¹ | Lambda z ([4]; One 2% (w/v) IN, Female): 0.3978 h⁻¹ | Lambda z ([4]; One 2% (w/v) IN, Male): 0.3492 h⁻¹ | Lambda z ([4]; One 4% (w/v) IN, Female): 0.2946 h⁻¹ | Tmax ([4]; One 4% (w/v) IN, Female): 30 min | Lambda z ([4]; One 4% (w/v) IN, Male): 0.3386 h⁻¹ | Tmax ([4]; One 4% (w/v) IN, Male): 30 min | λz ([4]; One Injection 0.4 mg IM): 0.557 (25.9) 1/h | λz ([4]; One Spray 2% (w/v) IN): 0.382 (34.9) 1/h | λz ([4]; One Spray 4% (w/v) IN): 0.334 (29.5) 1/h | Lambda z ([4]; Two 2% (w/v) IN, Female): 0.2796 h⁻¹ | Lambda z ([4]; Two 2% (w/v) IN, Male): 0.3122 h⁻¹ | Lambda z ([4]; Two 4% (w/v) IN, Female): 0.2994 h⁻¹ | Lambda z ([4]; Two 4% (w/v) IN, Male): 0.3407 h⁻¹ | λz ([4]; Two Sprays 2% (w/v) IN): 0.310 (34.5) 1/h | λz ([4]; Two Sprays 4% (w/v) IN): 0.330 (32.4) 1/h | Lambda z ([4]; one spray 2 mg 2% (w/v) IN): 0.3685 h⁻¹ | Lambda z ([4]; two sprays 4 mg 2% (w/v) IN): 0.2973 h⁻¹ | Lambda z ([4]; two sprays 8 mg 4% (w/v) IN): 0.3217 h⁻¹
